In patent US9828385B2, “Spiro-oxazolones” (Hoffmann-La Roche Inc., priority 2014, dated 2017):

target: T1, human V1a receptor (Homo sapiens, UniProt P37288); experiment: human V1a receptor binding studies (3H-Vasopressin, SPA beads); settings: membranes of HEK293 cells transiently transfected with human V1a receptor, Ki by Cheng-Prussoff from IC50, read-out: pKi hV1a (converted)
T1 construct: expressed in transfected cells; host or cells: HEK293 cells, transiently transfected; cell membranes
Experimental: The human V1a receptor was cloned by RT-PCR from total human liver RNA. The coding sequence was subcloned in an expression vector after sequencing to confirm the identity of the amplified sequence. […] Cell membranes were prepared from HEK293 cells transiently transfected with the expression vector and grown in 20 liter fermenters with the following protocol.
50 g of cells are re-suspended in 30 ml freshly prepared ice cold Lysis buffer (50 mM HEPES, 1 mM EDTA, 10 mM MgCl2 adjusted to pH=7.4+complete cocktail of protease inhibitor (Roche Diagnostics)). Homogenized with Polytron for 1 min and sonicated on ice for 2×2 minutes at 80% intensity (Vibracell sonicator). The preparation is centrifuged 20 min at 500 g at 4° C., the pellet is discarded and the supernatant centrifuged 1 hour at 43′000 g at 4° C. (19′000 rpm). The pellet is re-suspended in 12.5 ml Lysis buffer+12.5 ml Sucrose 20% and homogenized using a Polytron for 1-2 min. The protein concentration is determined by the Bradford method and aliquots are stored at −80° C. until use. For binding studies 60 mg Yttrium silicate SPA beads (Amersham) are mixed with an aliquot of membrane in binding buffer (50 mM Tris, 120 mM NaCl, 5 mM KCl, 2 mM CaCl2, 10 mM MgCl2) for 15 minutes with mixing. 50 μl of bead/membrane mixture is then added to each well of a 96 well plate, followed by 50 μl of 4 nM 3H-Vasopressin (American Radiolabeled Chemicals). For total binding measurement 100 μl of binding buffer are added to the respective wells, for non-specific binding 100 μl of […] cold vasopressin and for compound testing 100 μl of a serial dilution of each compound in 2% DMSO. The plate is incubated 1 h at room temperature, centrifuged 1 min at 1000 g and counted on a Packard Top-Count. Non-specific binding counts are subtracted from each well and data is normalized to the maximum specific binding set at 100%. To calculate an IC 50 the curve is fitted using a non-linear regression model (XLfit) and the Ki is calculated using the Cheng-Prussoff equation.

T1 sequence (P37288 whole entry): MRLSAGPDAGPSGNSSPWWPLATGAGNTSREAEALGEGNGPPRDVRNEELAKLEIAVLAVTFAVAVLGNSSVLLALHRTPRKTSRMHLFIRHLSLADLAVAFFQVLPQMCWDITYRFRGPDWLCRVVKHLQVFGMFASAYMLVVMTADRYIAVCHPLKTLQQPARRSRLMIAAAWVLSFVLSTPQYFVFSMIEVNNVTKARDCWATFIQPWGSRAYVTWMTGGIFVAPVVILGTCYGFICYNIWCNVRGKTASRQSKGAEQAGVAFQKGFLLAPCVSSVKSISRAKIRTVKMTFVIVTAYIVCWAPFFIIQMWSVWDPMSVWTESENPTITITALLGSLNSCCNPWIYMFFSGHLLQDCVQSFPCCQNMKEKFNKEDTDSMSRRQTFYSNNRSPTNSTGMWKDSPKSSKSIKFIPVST

SMILES	Ki
CCOCC1(C)OC(N2CCC3(CC2)OCc2ccccc23)=NC1=O (single isomer, unassigned; (-)) [Example 97, (−)-5-(Ethoxymethyl)-5-methyl-2-(1′H,3H-spiro[2-benzofuran-1,4′-piperidin]-1′-yl)-1,3-oxazol-4(5H)-one]	1580 nM
O=C1N=C(N2CCC3(CC2)OCc2ccccc23)OC1C(O)c1ccc(Cl)cc1 (single isomer, unassigned; diastereomer a) [Example 42, (−)-5-[(4-Chlorophenyl)(hydroxy)methyl]-2-(1′H,3H-spiro[2-benzofuran-1,4′-piperidin]-1′-yl)-1,3-oxazol-4(5H)-one diastereomer a]	3.16 nM
O=C1N=C(N2CCC3(CC2)OCc2ccccc23)OC1C(O)c1ccc(Cl)cc1 (single isomer, unassigned; diastereomer a) [Example 43, (+)-5-[(4-Chlorophenyl)(hydroxy)methyl]-2-(1′H,3H-spiro[2-benzofuran-1,4′-piperidin]-1′-yl)-1,3-oxazol-4(5H)-one diastereomer a]	15.8 nM
CC1(CC2CCOC2)OC(N2CCC3(CC2)OCc2ccccc23)=NC1=O (single isomer, unassigned; diastereomer a) [Example 99, 5-Methyl-2-(1′H,3H-spiro[2-benzofuran-1,4′-piperidin]-1′-yl)-5-(tetrahydrofuran-3-ylmethyl)-1,3-oxazol-4(5H)-one diastereomer a]	251 nM
CC1(CC2CCCOC2)OC(N2CCC3(CC2)OCc2ccccc23)=NC1=O (single isomer, unassigned; diastereomer a) [Example 102, (+)-5-Methyl-2-(1′H,3H-spiro[2-benzofuran-1,4′-piperidin]-1′-yl)-5-(tetrahydro-2H-pyran-3-ylmethyl)-1,3-oxazol-4(5H)-one diastereomer a]	20 nM
CC1(CC2CCCOC2)OC(N2CCC3(CC2)OCc2ccccc23)=NC1=O (single isomer, unassigned; diastereomer a) [Example 103, (−)-5-Methyl-2-(1′H,3H-spiro[2-benzofuran-1,4′-piperidin]-1′-yl)-5-(tetrahydro-2H-pyran-3-ylmethyl)-1,3-oxazol-4(5H)-one diastereomer a]	10 nM
CC(c1ccccc1)C1(C)OC(N2CCC3(CC2)OCc2ccccc23)=NC1=O (single isomer, unassigned; diastereomer a) [Example 106, 5-Methyl-5-(1-phenylethyl)-2-(1′H,3H-spiro[2-benzofuran-1,4′-piperidin]-1′-yl)-1,3-oxazol-4(5H)-one diastereomer a]	15.8 nM
CC(c1ccccc1)C1(C)OC(N2CCC3(CC2)OCc2ccccc23)=NC1=O (single isomer, unassigned; diastereomer a) [Example 108, (+)-5-Methyl-5-(1-phenylethyl)-2-(1′H,3H-spiro[2-benzofuran-1,4′-piperidin]-1′-yl)-1,3-oxazol-4(5H)-one diastereomer a]	12.6 nM
CC(c1ccccc1)C1(C)OC(N2CCC3(CC2)OCc2ccccc23)=NC1=O (single isomer, unassigned; diastereomer a) [Example 109, (−)-5-Methyl-5-(1-phenylethyl)-2-(1′H,3H-spiro[2-benzofuran-1,4′-piperidin]-1′-yl)-1,3-oxazol-4(5H)-one diastereomer a]	50.1 nM
CC(=O)O[C@H]1CC2(C[C@H]1OC(C)=O)OC(N1CCC3(CC1)OCc1ccccc13)=NC2=O (single isomer, unassigned; diastereomer a) [Example 120, 4-Oxo-2-(1′H,3H-spiro[2-benzofuran-1,4′-piperidin]-1′-yl)-1-oxa-3-azaspiro[4.4]non-2-ene-7,8-diyl diacetate diastereomer a]	200 nM
CO[C@H]1CC2(C[C@H]1OC)OC(N1CCC3(CC1)OCc1ccccc13)=NC2=O (single isomer, unassigned; diastereomer a) [Example 122, 7,8-Dimethoxy-2-(1′H,3H-spiro[2-benzofuran-1,4′-piperidin]-1′-yl)-1-oxa-3-azaspiro[4.4]non-2-en-4-one diastereomer a]	200 nM
CCCCCC1CCC2(CC1)OC(N1CCC3(CC1)OC(=O)c1ccccc13)=NC2=O (single isomer, unassigned; diastereomer a) [Example 126, 1′-[4-Oxo-8-pentyl-1-oxa-3-azaspiro[4.5]dec-2-en-2-yl]-3H-spiro[2-benzofuran-1,4′-piperidin]-3-one diastereomer a]	31.6 nM
CCCCCC1CCC2(CC1)OC(N1CCC3(CC1)OCc1ccccc13)=NC2=O (single isomer, unassigned; diastereomer a) [Example 128, 8-Pentyl-2-(1′H,3H-spiro[2-benzofuran-1,4′-piperidin]-1′-yl)-1-oxa-3-azaspiro[4.5]dec-2-en-4-one diastereomer a]	20 nM
CCOC(=O)C1[C@H]2CC3(C[C@@H]12)OC(N1CCC2(CC1)OCc1ccccc12)=NC3=O (single isomer, unassigned; diastereomer a) [Example 148, Ethyl 4′-oxo-2′-(1′H,3H-spiro[2-benzofuran-1,4′-piperidin]-1′-yl)-4′H-spiro[bicyclo[3.1.0]hexane-3,5′-[1,3]oxazole]-6-carboxylate diastereomer a]	1000 nM
O=C1N=C(N2CCC3(CC2)OCc2ccccc23)OC1C(O)c1ccc(Cl)cc1 (single isomer, unassigned; diastereomer b) [Example 44, (−)-5-[(4-Chlorophenyl)(hydroxy)methyl]-2-(1′H,3H-spiro[2-benzofuran-1,4′-piperidin]-1′-yl)-1,3-oxazol-4(5H)-one diastereomer b]	126 nM
O=C1N=C(N2CCC3(CC2)OCc2ccccc23)OC1C(O)c1ccc(Cl)cc1 (single isomer, unassigned; diastereomer b) [Example 45, (+)-5-[(4-Chlorophenyl)(hydroxy)methyl]-2-(1′H,3H-spiro[2-benzofuran-1,4′-piperidin]-1′-yl)-1,3-oxazol-4(5H)-one diastereomer b]	15.8 nM
CC1(CC2CCOC2)OC(N2CCC3(CC2)OCc2ccccc23)=NC1=O (single isomer, unassigned; diastereomer b) [Example 100, 5-Methyl-2-(1′H,3H-spiro[2-benzofuran-1,4′-piperidin]-1′-yl)-5-(tetrahydrofuran-3-ylmethyl)-1,3-oxazol-4(5H)-one diastereomer b]	126 nM
CC1(CC2CCCOC2)OC(N2CCC3(CC2)OCc2ccccc23)=NC1=O (single isomer, unassigned; diastereomer b) [Example 104, (+)-5-Methyl-2-(1′H,3H-spiro[2-benzofuran-1,4′-piperidin]-1′-yl)-5-(tetrahydro-2H-pyran-3-ylmethyl)-1,3-oxazol-4(5H)-one diastereomer b]	50.1 nM
CC1(CC2CCCOC2)OC(N2CCC3(CC2)OCc2ccccc23)=NC1=O (single isomer, unassigned; diastereomer b) [Example 105, (−)-5-Methyl-2-(1′H,3H-spiro[2-benzofuran-1,4′-piperidin]-1′-yl)-5-(tetrahydro-2H-pyran-3-ylmethyl)-1,3-oxazol-4(5H)-one diastereomer b]	501 nM
CC(c1ccccc1)C1(C)OC(N2CCC3(CC2)OCc2ccccc23)=NC1=O (single isomer, unassigned; diastereomer b) [Example 107, 5-Methyl-5-(1-phenylethyl)-2-(1′H,3H-spiro[2-benzofuran-1,4′-piperidin]-1′-yl)-1,3-oxazol-4(5H)-one diastereomer b]	10 nM
CC(c1ccccc1)C1(C)OC(N2CCC3(CC2)OCc2ccccc23)=NC1=O (single isomer, unassigned; diastereomer b) [Example 110, (−)-5-Methyl-5-(1-phenylethyl)-2-(1′H,3H-spiro[2-benzofuran-1,4′-piperidin]-1′-yl)-1,3-oxazol-4(5H)-one diastereomer b]	6.31 nM
CC(c1ccccc1)C1(C)OC(N2CCC3(CC2)OCc2ccccc23)=NC1=O (single isomer, unassigned; diastereomer b) [Example 111, (+)-5-Methyl-5-(1-phenylethyl)-2-(1′H,3H-spiro[2-benzofuran-1,4′-piperidin]-1′-yl)-1,3-oxazol-4(5H)-one diastereomer b]	251 nM
CC(=O)O[C@H]1CC2(C[C@H]1OC(C)=O)OC(N1CCC3(CC1)OCc1ccccc13)=NC2=O (single isomer, unassigned; diastereomer b) [Example 121, 4-Oxo-2-(1′H,3H-spiro[2-benzofuran-1,4′-piperidin]-1′-yl)-1-oxa-3-azaspiro[4.4]non-2-ene-7,8-diyl diacetate diastereomer b]	6.31 nM
